Holding throughout (assay type): cell-based
Series [1] deals with KHYG-1 NK cell-mediated lysis of K562 cells. Briefly: Inhibition of KHYG-1 NK cell-mediated lysis of K562 cells (51Cr release). To be noted: K562 target cells, Effector:Target 2:1, 4 hours 37° C. Here is the method:
Inhibition of KHYG-1 NK Cell-Mediated lysis of K562 Cells
KHYG-1 cells were washed and resuspended in RPMI+0.1% BSA at 4×10^5 cells/ml and 50 μl of KHYG-1 cells were dispensed to each well of a 96-well V-bottom, plate. Test compounds were added to KHYG-1 cells at various concentrations up to 20 μM and incubated at RT for 20 minutes. 1×10^6 K562 target cells were labelled with 75 μCi ^51Cr in 200 μl RPMI for 90 mins at 37° C., cells were washed as described above and resuspended in 5 ml RPMI+0.1% BSA. 50 μl of ^51Cr labelled K562 leukemia target cells were added to each well of the KHYG-1 plate (Effector:Target 2:1) and incubated at 37° C. for 4 hours. ^51Cr release was assayed using a Skatron Harvesting Press and radioactivity estimated on a Wallac Wizard 1470 Automatic Gamma counter (Turku, Finland). The percentage of specific cytotoxicity was calculated by the formula: […]
and expressed as the mean of triplicate assays +/−standard error of the mean.

For a further series, the target named is recombinant perforin (UniProt P10820). On the procedure: Inhibition of Perforin-Mediated Lysis of Jurkat Cells
The ability of the compounds to inhibit the lysis of nucleated (Jurkat T lymphoma) cells in the presence of 0.1% BSA, as measured by release of ^51Cr was measured. Jurkat target cells were labelled by incubation in medium with 100 μCi ^51Cr for one hour. The cells were then washed three times to remove unincorporated isotope and re-suspended at 1×10^5 cells per mL in RPMI buffer supplemented with 0.1% BSA. […] The supernatant was collected and assessed for its radioactive content on a gamma counter (Wallac Wizard 1470 automatic gamma counter). Each data point was performed in triplicate and an IC50 was calculated from the range of concentrations described to above.

In another series the test system is KHYG-1 NK cells. Briefly: Toxicity to KHYG-1 NK cells (trypan blue viability). To be noted: viable cells as percentage of total (% viability), 18 to 24 hours. On the procedure: Toxicity to KHYG-1 NK Cells
KHYG-1 cells were washed and resuspended in RPMI+0.1% BSA at 4×10^5 cells/ml and 50 μl of KHYG-1 cells were dispensed to each well of a 96-well V-bottom plate. Test compounds were added to KHYG-1 cells at a concentration of 20 μM and incubated at RT for 20 minutes. 100 μL of RPMI 0.1% BSA was added and the cells were incubated for 4 hours at 37° C. then washed ×3 in RPMI+0.1% BSA. Cells were then resuspended in 200 μl of complete medium and incubated for 18 to 24 hours at 37° C. Trypan blue was added to each well and viable (clear) cells counted as a percentage of total (clear+blue) cell number (% viability).

[2] abbreviates: recombinant perforin pre-incubated 30 min with compound; 51Cr-labelled Jurkat cells, 0.1% BSA, 37° C. 4 hours; read-out: Jurkat IC50.
Where [3] appears, read: read-out: Jurkat IC50; recombinant perforin pre-incubated 30 min with compound; 51Cr-labelled Jurkat cells, 0.1% BSA, 37° C. 4 hours.

Like-named read-outs stand apart in the source and are kept apart here.

Sequence of recombinant perforin (P10820 whole entry): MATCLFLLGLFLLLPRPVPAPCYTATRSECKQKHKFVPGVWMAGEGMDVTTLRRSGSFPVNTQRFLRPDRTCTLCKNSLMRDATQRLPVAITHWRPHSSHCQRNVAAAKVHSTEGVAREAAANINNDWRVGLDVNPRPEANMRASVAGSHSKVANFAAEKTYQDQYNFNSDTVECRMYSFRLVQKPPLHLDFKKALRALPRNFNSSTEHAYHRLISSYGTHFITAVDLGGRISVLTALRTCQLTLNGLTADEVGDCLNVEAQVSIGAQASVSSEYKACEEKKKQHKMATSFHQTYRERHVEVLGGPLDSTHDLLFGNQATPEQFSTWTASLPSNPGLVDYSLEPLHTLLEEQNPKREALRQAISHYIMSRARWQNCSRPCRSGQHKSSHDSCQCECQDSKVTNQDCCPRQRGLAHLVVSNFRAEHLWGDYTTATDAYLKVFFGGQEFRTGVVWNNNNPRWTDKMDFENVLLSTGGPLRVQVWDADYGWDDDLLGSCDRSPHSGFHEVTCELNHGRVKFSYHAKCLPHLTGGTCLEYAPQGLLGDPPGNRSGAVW

Take `O=C1NC(=S)N/C1=C/c1ccc2cc(-c3ccc4c(c3)COC4=O)ccc2n1` [Cmpd 14, (E,Z)-5-((6-(1-Oxo-1,3-dihydroisobenzofuran-5-yl)quinolin-2-yl)methylene)-2-thioxoimidazolidin-4-one]: the “Inhibition of KHYG-1 at 20 μM” value in series [1] amounted to 56%. The IC50 – broadly, the concentration at which inhibition is half-maximal – at recombinant perforin (setting [2]) came out at 0.47 µM. Moreover, the “percent viable KHYG-1 cells (trypan blue) at 20 μM” value (“percent viable KHYG-1 cells” below) in the series with KHYG-1 NK cells is given as 81%.

`O=C1NC(=O)/C(=C\c2ccc(-c3ccc4c(c3)CNC4=O)s2)N1` [Cmpd 47, (E,Z)-5-((5-(1-Oxoisoindolin-5-yl)thiophen-2-yl)methylene)imidazolidine-2,4-dione]: in series [1], the inhibition – broadly, the relative decrease from the control value, in per cent – at 20 µM amounted to 73%. The IC50 at recombinant perforin (setting [3]) came out at 0.4 µM. Besides, in the series on KHYG-1 NK cells, the “percent viable KHYG-1 cells” value amounted to 92%.

Turning to `NC(=O)c1ccc(-c2ccc(/C=C3/NC(=S)NC3=O)s2)cc1` [Cmpd 16, (E,Z)-4-(5-((5-oxo-2-thioxoimidazolidin-4-ylidene)methyl)thiophen-2-yl)benzamide], in series [1], testing at 20 µM gave an inhibition of 80%. Besides, the IC50 at recombinant perforin (setting [3]) is 1.56 µM. In addition, the “percent viable KHYG-1 cells” value in the series on KHYG-1 NK cells is given as 52%.

Take `NC(=O)c1cccc(-c2ccc(/C=C3/NC(=S)NC3=O)s2)c1` [Cmpd 17, (E,Z)-3-(5-((5-Oxo-2-thioxoimidazolidin-4-ylidene)methyl)thiophen-2-yl)benzamide]: in series [1], the inhibition at 20 µM came out at 35%. Further, the IC50 on recombinant perforin (setting [3]) was 0.79 µM. The “percent viable KHYG-1 cells” value in the series on KHYG-1 NK cells amounted to 100%.

In turn, `N#Cc1cccc(-c2ccc(/C=C3/NC(=S)NC3=O)s2)c1` [Cmpd 34, (E,Z)-3-(5-((5-Oxo-2-thioxoimidazolidin-4-ylidene)methyl)thiophen-2-yl)benzonitrile] returned an inhibition at 20 µM in series [1] of 97%. Also, the IC50 at recombinant perforin (setting [3]) stood at 9.68 µM. In addition, the “percent viable KHYG-1 cells” value with KHYG-1 NK cells is listed as 99%.

Consider `CCN1Cc2cc(-c3ccc(/C=C4/NC(=S)NC4=O)s3)ccc2C1=O` [Cmpd 62, (E,Z)-2-Ethyl-5-(5-((5-oxo-2-thioxoimidazolidin-4-ylidene)methyl)thiophen-2-yl)isoindolin-1-one], for which the inhibition at 20 µM in series [1] came out at 84%. On recombinant perforin (setting [3]), the IC50 is 0.6 µM. Moreover, the “percent viable KHYG-1 cells” value in the series on KHYG-1 NK cells was 79%.

With `CC1c2cc(-c3ccc(/C=C4/NC(=S)NC4=O)s3)ccc2C(=O)N1C` (stereo not drawn) [Cmpd 69, (E,Z)-2,3-Dimethyl-5-(5-((5-oxo-2-thioxoimidazolidin-4-ylidene)methyl)thiophen-2-yl)isoindolin-1-one], in series [1], 20 µM produced 100% inhibition. The IC50 on recombinant perforin (setting [3]) amounted to 3.21 µM. In addition, in the series with KHYG-1 NK cells, the “percent viable KHYG-1 cells” value is 95%.

As to `O=C1NC(=S)N/C1=C\c1ccc(-c2ccc3c(c2)C(=O)NCC3)s1` [Cmpd 81, (E,Z)-7-(5-((5-Oxo-2-thioxoimidazolidin-4-ylidene)methyl)thiophen-2-yl)-3,4-dihydroisoquinolin-1(2H)-one], testing at 20 µM in series [1] gave an inhibition of 62%. Further, on recombinant perforin (setting [3]), the IC50 came out at 0.67 µM. Also, the “percent viable KHYG-1 cells” value in the series with KHYG-1 NK cells is reported as 88%.

Compound `O=C1NC(=S)N/C1=C/c1ccc(-c2ccc(C(=O)NCCCO)cc2)s1` [Cmpd 44, (E,Z)-N-(3-Hydroxypropyl)-4-(5-((5-oxo-2-thioxoimidazolidin-4-ylidene)methyl)thiophen-2-yl)benzamide] displayed an inhibition at 20 µM in series [1] of 52%. Further, the IC50 on recombinant perforin (setting [3]) stood at 4.35 µM.

`CN1CCc2ccc(-c3ccc(/C=C4\NC(=S)NC4=O)s3)cc2C1=O` [Cmpd 83, (E,Z)-2-Methyl-7-(5-((5-oxo-2-thioxoimidazolidin-4-ylidene)methyl)thiophen-2-yl)-3,4-dihydroisoquinolin-1(2H)-one]: in series [1], the inhibition at 20 µM is 91%. For the same compound, at recombinant perforin (setting [3]), the IC50 worked out at 4.76 µM.

Consider `O=C1NC(=S)N/C1=C/c1ccc(-c2ccc(F)c(F)c2)s1` [Cmpd 30, (E,Z)-5-((5-(3,4-Difluorophenyl)thiophen-2-yl)methylene)-2-thioxoimidazolidin-4-one], for which, on recombinant perforin (setting [3]), the IC50 worked out at 4.59 µM.

The compound `O=C1NC(=S)NC1=Cc1ccc(-c2ccc3c(c2)CNC3=O)cc1` [Cmpd 48, (E,Z)-5-(4-((5-Oxo-2-thioxoimidazolidin-4-ylidene)methyl)phenyl)isoindolin-1-one] had an inhibition at 20 µM in series [1] of 16%. Further, the IC50 on recombinant perforin (setting [3]) was found to be 5.55 µM.

In the case of `CS(=O)(=O)c1ccc(-c2ccc(/C=C3/NC(=S)NC3=O)s2)cc1` [Cmpd 28, (E,Z)-5-((5-(4-(Methylsulfonyl)phenyl)thiophen-2-yl)methylene)-2-thioxoimidazolidin-4-one], the IC50 at recombinant perforin (setting [3]) came out at 13.8 µM.

For `COC(=O)c1ccc(-c2ccc(/C=C3/NC(=S)NC3=O)s2)cc1C` [Cmpd 21, (E,Z)-Methyl 2-methyl-4-(5-((5-oxo-2-thioxoimidazolidin-4-ylidene)methyl)thiophen-2-yl)benzoate], at 20 µM the inhibition in series [1] was 92%. The IC50 on recombinant perforin (setting [3]) came out at 3.03 µM.

For `O=C1NC(=S)N/C1=C/c1ccc(-c2ccc3c(c2)COC3=O)cn1` [Cmpd 7], the IC50 on recombinant perforin (setting [2]) was determined as 2 µM.

As for `O=C1NC(=S)N/C1=C/c1ccc(-c2ccncc2)s1` [Cmpd 25, (E,Z)-5-((5-(Pyridin-4-yl)thiophen-2-yl)methylene)-2-thioxoimidazolidin-4-one], the IC50 at recombinant perforin (setting [3]) came to 10.1 µM.

Compound `O=C1NC(=S)N/C1=C/c1ccc(-c2ccc3c(c2)CN(CC(O)CO)C3=O)s1` (stereo not drawn) [Cmpd 78, (E,Z)-2-(2,3-Dihydroxypropyl)-5-(5-((5-oxo-2-thioxoimidazolidin-4-ylidene)methyl)thiophen-2-yl)isoindolin-1-one] registered an inhibition at 20 µM in series [1] of 19%. For the same compound, the IC50 on recombinant perforin (setting [3]) amounted to 1.26 µM.

Compound `O=C1NC(=S)N/C1=C/c1ccc(-c2ccc(C(=O)NCCO)cc2)s1` [Cmpd 42, (E,Z)-N-(2-Hydroxyethyl)-4-(5-((5-oxo-2-thioxoimidazolidin-4-ylidene)methyl)thiophen-2-yl)benzamide] displayed an inhibition at 20 µM in series [1] of 42%. The half-inhibitory concentration (IC50) at recombinant perforin (setting [3]) came to 3.64 µM.

For `O=C1NC(=S)N/C1=C/c1ccc(-c2ccc(F)cc2)s1` [Cmpd 29, (E,Z)-5-((5-(4-Fluorophenyl)thiophen-2-yl)methylene)-2-thioxoimidazolidin-4-one], the IC50 on recombinant perforin (setting [3]) is 6.69 µM.

As to `O=C1NC(=S)N/C1=C/c1ccc(-c2cccc(F)c2)s1` [Cmpd 31, (E,Z)-5-((5-(3-Fluorophenyl)thiophen-2-yl)methylene)-2-thioxoimidazolidin-4-one], the IC50 at recombinant perforin (setting [3]) was found to be 10.8 µM.

`CN1Cc2cc(-c3ccc(/C=C4/NC(=S)NC4=O)s3)ccc2C1=O` [Cmpd 61, (E,Z)-2-Methyl-5-(5-((5-oxo-2-thioxoimidazolidin-4-ylidene)methyl)thiophen-2-yl)isoindolin-1-one] returned an inhibition at 20 µM in series [1] of 83%. The “percent viable KHYG-1 cells” value with KHYG-1 NK cells is listed as 76%.

Consider `CN1CCc2cc(-c3ccc(/C=C4\NC(=S)NC4=O)s3)ccc2C1=O` [Cmpd 84, (E,Z)-2-Methyl-6-(5-((5-oxo-2-thioxoimidazolidin-4-ylidene)methyl)thiophen-2-yl)-3,4-dihydroisoquinolin-1(2H)-one], for which the inhibition at 20 µM in series [1] amounted to 72%. Further, the IC50 at recombinant perforin (setting [3]) was determined as 2.33 µM.

In turn, `CS(=O)(=O)Nc1ccc(-c2ccc(/C=C3/NC(=S)NC3=O)s2)cc1` [Cmpd 33, (E,Z)-N-(4-(5-((5-Oxo-2-thioxoimidazolidin-4-ylidene)methyl)thiophen-2-yl)phenyl)methanesulfonamide] came in with an inhibition at 20 µM in series [1] of 32%. Moreover, at recombinant perforin (setting [3]), the IC50 worked out at 7.7 µM.

(Values after US20130065897A1, “COMPOUNDS, PREPARATION AND USES THEREOF” (PETER MACCALLUM CANCER INSTITUTE, priority 2009, published 2013).)
